Reference: patent publication US12616698B2, “Methods for reducing liver fat and for treating fatty liver disorders” (Corcept Therapeutics Incorporated, priority 2021, dated 2026)
Marks after values point to notes of the source that are not given here.

Assays:
Format in all cases: in vivo, human
[1] = system: patients presumed to have NASH; assay: Phase 2a study in patients with presumed NASH: liver fat by MRI-PDFF
Excerpt: A Phase 2a, randomized, double-blind, placebo-controlled study (ClinicalTrials.gov Identifier: NCT03823703) was begun to assess the efficacy of two dose levels of miricorilant versus placebo in reducing liver fat in patients who were presumed to have non-alcoholic steatohepatitis (NASH), that presumption based on blood tests and noninvasive measures. Written informed consent was obtained before initiating any study-mandated procedures. The full study was planned to enroll approximately 120 patients, randomized 1:1:1 to receive daily 900 mg miricorilant:600 mg miricorilant: matching placebo.
Patients enrolled in the study were required to have consistent liver enzyme (ALT and AST) baseline measurements (established by two samples obtained at least 4 weeks and no more than six months apart), and a diagnosis of presumed NASH with fibrosis defined as meeting all of the following criteria: • a. Either: i) a historical liver biopsy within 1 year of Screening showing NASH, NAFLD Activity Score (NAS) greater than or equal to 4, and F1 to F3 fibrosis, or ii) an AST level greater than 17 U/L for women or AST level greater than 20 U/L for men AND a FibroScan liver stiffness measurement of greater than or equal to 8.5 kPa and a Controlled Attenuation Parameter (CAP) of greater than or equal to 300 dB/m in the 3 months prior to Screening or at Screening; • b. A MRI-PDFF with greater than or equal to 10% steatosis; and • c. The presence of two or more components of metabolic syndrome: type 2 diabetes treatment or fasting blood glucose greater than or equal to 126 mg/dL, BMI greater than or equal to 30 kg/m^2, hypertension treatment or blood pressure greater than or equal to 130/85, history of dyslipidemia, or waist circumference greater than or equal to 102 cm (40 in) in men and greater than or equal to 88 cm (35 in) in women.
(§1) Measures of the effectiveness of miricorilant versus placebo in reducing liver fat were assessed by magnetic resonance imaging (MRI). The change from baseline MRI measurements relative to MRI measurements taken following a course of daily miricorilant or placebo administration were assessed by magnetic resonance imaging-proton density fat fraction (MRI-PDFF). Additionally, effects of miricorilant may be assessed by measuring one or more of the following, either by comparing change from baseline after one or more days of miricorilant administration, or by comparing measurements in patients administered miricorilant versus patients administered placebo: change in liver fat assessed by MRI-PDFF; change in AST, ALT, and gamma-glutamyl transferase (GGT); change in propeptide of type III collagen (pro-C3); change in enhanced liver fibrosis (ELF) score and its components (hyaluronic acid, tissue inhibitor of metalloproteinases-1 [TIMP-1], type III procollagen [PIIINP]); change in ACTH, serum cortisol, and serum aldosterone (pharmacodynamic assessments); change in Homeostatic Model Assessment of Insulin Resistance (HOMA-IR); change in absolute body weight; and other measurements. […] For patients with diabetes, change in HbA1c and change in fasting blood glucose may be measured to assess the effects of miricorilant. Change in blood pressure may be measured in patients with high blood pressure to assess the effects of miricorilant. Pharmacokinetic (PK) parameters were estimated from steady state plasma concentrations of miricorilant.
Patients were randomized in a 1:1:1 ratio to 600 mg miricorilant, 900 mg miricorilant, or placebo. Study drug was administered once daily, orally with 8 oz (240 mL) of water, along with food. Patients were instructed to take a total of 6 tablets at approximately the same time each day. Those in the 600 miricorilant group took 4 miricorilant tablets and 2 placebo tablets. Those in the 900 miricorilant group took 6 miricorilant tablets. Those in the placebo group took 6 placebo tablets. […]

[2] = system: patients presumed to have NASH; assay: Phase 2a study: NASH biomarkers (pro-C3, ELF score and its components); details: for Enhanced Liver Fibrosis (ELF) Score, Change from Baseline mean / Enhanced Liver Fibrosis (ELF) Score, Value mean: unitless
Method: as §1
NASH biomarkers include AST, ALT, GGT, pro-C3, ELF score and its components (hyaluronic acid, TIMP-1, PIIINP). Blood for measuring levels of AST, ALT, and GGT (as part of the chemistry panel) will be collected. Small fragments of collagen, called propeptides, are released during fibrosis. Pro-C3 is the propeptide of type III collagen and detection of pro-C3 is anticipated to reflect the formation of new fibrotic tissue in the liver (Vilar-Gomez and Chalasani 2018). Blood samples for measuring pro-C3 were collected. […] Each of these markers is measured by an immunoassay and an ELF score is generated, from which a level of fibrosis severity can be determined.
(Units are nanograms per milliliter (ng/mL) except for the enhanced liver fibrosis score (ELF), which is unitless.)

[3] = Phase 2a study: body weight and plasma lipids; details: patients who responded to miricorilant treatment (FIG. 4)
Method: as §1, with “Change in blood pressure may be measured in patients with high blood pressure to assess the effects of miricorilant. Pharmacokinetic (PK) parameters were estimated from steady state plasma concentrations of miricorilant.” left out
Liver enzyme levels were measured in the patients.

[4] = one patient, 600 mg per day, MRI-PDFF 26 days after cessation of study drug
[5] = patient 208-4020, 900 mg daily, 30 days on study drug, MRI 19 days after dose ended
[6] = patient 211-4002, 900 mg daily, 31 days on study drug, MRI 64 days after dose ended
[7] = patient 214-4007, 900 mg daily, 44 days on study drug, MRI 16 days after dose ended
[8] = patient 232-4016, 600 mg daily, 39 days on study drug, MRI 26 days after dose ended
[9] = patient 233-4018, 600 mg daily, 34 days on study drug, MRI 21 days after dose ended

O=c1[nH]c(=O)c(Cc2cccc(C(F)(F)F)c2)c([C@H]2CC[C@H](c3ccccc3)CC2)[nH]1 [miricorilant, (E)-6-(4-Phenylcyclohexyl)-5-(3-trifluoromethylbenzyl)-1H-pyrimidine-2,4-dione]
Liver fat levels ([1]; 30 or 34 days of treatment, two of five patients administered miricorilant): normalized | Liver fat reductions ([1]; found in four patients (Table 3)): greater than 30% | Resolution of fatty liver (MRI-PDFF <5%) ([1]; one patient (233-4018, 600 mg) of the four with liver fat decreases): *complete resolution of fatty liver (MRI-PDFF <5%) | MRI PDFF value increase as compared to baseline [1, 4]: 5 | Relative increase in liver fat from baseline [1, 4]: 27.9% | % Change in liver fat [1, 5]: −65.3% | Change in MRI PDFF [1, 5]: −11.5 | MRI PDFF value ([1]; patient 208-4020, 900 mg daily, 30 days on study drug, MRI 19 days after dose ended, screening value 17.6): 6.1 | Relative change from baseline in % liver fat ([1]; patient 208-4020, 900 mg, 30 days on treatment): −65.3% | Liver fat Follow-up ([1]; patient 208-4020, 900 mg, 30 days on treatment, baseline 17.6): 6.1% | % Change in liver fat [1, 6]: −38.5% | Change in MRI PDFF [1, 6]: −10.7 | MRI PDFF value ([1]; patient 211-4002, 900 mg daily, 31 days on study drug, MRI 64 days after dose ended, screening value 27.8): 17.1 | Relative change from baseline in % liver fat ([1]; patient 211-4002, 900 mg, 31 days on treatment): −38.5% | Liver fat Follow-up ([1]; patient 211-4002, 900 mg, 31 days on treatment, baseline 27.8): 17.1% | % Change in liver fat [1, 7]: −47.0% | Change in MRI PDFF [1, 7]: −13.3 | MRI PDFF value ([1]; patient 214-4007, 900 mg daily, 44 days on study drug, MRI 16 days after dose ended, screening value 28.3): 15.0 | Relative change from baseline in % liver fat ([1]; patient 214-4007, 900 mg, 44 days on treatment): −47.0% | Liver fat Follow-up ([1]; patient 214-4007, 900 mg, 44 days on treatment, baseline 28.3): 15.0% | % Change in liver fat [1, 8]: +27.9% | Change in MRI PDFF [1, 8]: 5.0 | MRI PDFF value ([1]; patient 232-4016, 600 mg daily, 39 days on study drug, MRI 26 days after dose ended, screening value 17.9): 22.9 | % Change in liver fat [1, 9]: −73.8% | Change in MRI PDFF [1, 9]: −9.3 | MRI PDFF value ([1]; patient 233-4018, 600 mg daily, 34 days on study drug, MRI 21 days after dose ended, screening value 12.6): 3.3 | Relative change from baseline in % liver fat ([1]; patient 233-4018, 600 mg, 34 days on treatment): −73.8% | Liver fat Follow-up ([1]; patient 233-4018, 600 mg, 34 days on treatment, baseline 12.6): 3.3* % | Mean liver fat content after treatment (FIG. 3C) ([1]; patient with the greatest reduction, 600 mg daily, baseline 12.6%): 3.3% | Hyaluronic Acid, Change from Baseline mean ([2]; 600 mg Miricorilant (N = 5)): -17.8 ng/mL | Hyaluronic Acid, Value mean ([2]; 600 mg Miricorilant (N = 5)): 70.7 ng/mL | Propeptide of Type III Collagen (pro-C3), Change from Baseline mean ([2]; 600 mg Miricorilant (N = 5)): 0.5 ng/mL | Propeptide of Type III Collagen (pro-C3), Value mean ([2]; 600 mg Miricorilant (N = 5)): 10.7 ng/mL | Tissue Inhibitor of Metalloproteinases-1 (TIMP-1), Change from Baseline mean ([2]; 600 mg Miricorilant (N = 5)): 3.2 ng/mL | Tissue Inhibitor of Metalloproteinases-1 (TIMP-1), Value mean ([2]; 600 mg Miricorilant (N = 5)): 249.5 ng/mL | Type III Procollagen (PIIINP), Change from Baseline mean ([2]; 600 mg Miricorilant (N = 5)): -0.17 ng/mL | Type III Procollagen (PIIINP), Value mean ([2]; 600 mg Miricorilant (N = 5)): 9.3 ng/mL | Enhanced Liver Fibrosis (ELF) Score, Change from Baseline mean ([2]; 600 mg Miricorilant (N = 5)): −0.05 | Enhanced Liver Fibrosis (ELF) Score, Value mean ([2]; 600 mg Miricorilant (N = 5)): 9.4 | Hyaluronic Acid, Change from Baseline mean ([2]; 900 mg Miricorilant (N = 3)): -50.0 ng/mL | Hyaluronic Acid, Value mean ([2]; 900 mg Miricorilant (N = 3)): 110.9 ng/mL | Propeptide of Type III Collagen (pro-C3), Change from Baseline mean ([2]; 900 mg Miricorilant (N = 3)): -7.9 ng/mL | Propeptide of Type III Collagen (pro-C3), Value mean ([2]; 900 mg Miricorilant (N = 3)): 24.1 ng/mL | Tissue Inhibitor of Metalloproteinases-1 (TIMP-1), Change from Baseline mean ([2]; 900 mg Miricorilant (N = 3)): -79.4 ng/mL | Tissue Inhibitor of Metalloproteinases-1 (TIMP-1), Value mean ([2]; 900 mg Miricorilant (N = 3)): 402.1 ng/mL | Type III Procollagen (PIIINP), Change from Baseline mean ([2]; 900 mg Miricorilant (N = 3)): -5.35 ng/mL | Type III Procollagen (PIIINP), Value mean ([2]; 900 mg Miricorilant (N = 3)): 17.7 ng/mL | Enhanced Liver Fibrosis (ELF) Score, Change from Baseline mean ([2]; 900 mg Miricorilant (N = 3)): −0.90 | Enhanced Liver Fibrosis (ELF) Score, Value mean ([2]; 900 mg Miricorilant (N = 3)): 10.6 | Changes in body weight [3]: No significant changes
